The subject of this assay is P388 leukemia. Nature of the assay: NCI tumour cell line growth inhibition, 48 h.

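Cultured in 96-well plates, cells were exposed to test compound for 48 hours across five concentrations. TGI: total growth inhibition.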

From PubChem BioAssay (NCI) come the findings set out here.

The compound `COc1ccc2c(c1)-c1nn(CCCN(C)C)c3ccc([N+](=O)[O-])c(c13)N2` came in with a TGI of 0.666 µM.
